Measured values reported in patent US5001128A, “HMG-COA reductase inhibitors” (Rhone-Poulenc Rorer Pharmaceuticals Inc., priority 1989, dated 1991).

Experiments:
[1] = target: HMG-CoA reductase; assay: HMGR Screen (inhibition of solubilized rat liver HMG-CoA reductase, [14C] HMG-CoA); type: biochemical; conditions: solubilized rat liver microsomal enzyme; 20 μM HMG-CoA; 37° C.; pH 7.0; read-out: IC50 (Micromoles per liter), HMGR Screen
Procedure: The first method used (designated HMGR Screen) was as follows. Male rats were acclimated to an alternate 12 hour light-dark cycle for a period of 2-3 weeks. The animals, weighing 180-230 g, were fed ad libitum a rat chow containing 2% cholestyramine for 5 days prior to sacrifice at the mid-dark period. Liver microsomes were prepared and HMGR enzyme was solubilized from the microsomes by freeze-thaw manipulation in high ionic strength buffer. The enzyme preparation was stored at -80° C. in 300 μl portion samples. Prior to use, the enzyme was activated at 37° C. for 30 minutes in a reaction mixture. The reaction mixture contained in a volume of 240 μl:0.14M potassium phosphate buffer (pH 7.0); 0.18M KCl; 3.5 mM EDTA; 10 mM dithiothreitol; 0.1 mg/ml BSA; 30,000 cpm of [^14 C] HMG-CoA; 20 μM HMG-CoA, and 200 μg of solubilized enzyme with and without inhibitors (in 10 μDMSO). After 5 minutes incubation at 37° C. the reaction was initiated with 0.2 mM NADPH. The final assay volume was 300 μl. The reaction then was terminated with 100 μl of 1N HCl. After an additional incubation for 15 minutes at 37° C. to allow for complete lactonization of the product, the mixture was diluted with 3 ml GDW. […] After the addition of 10 ml of Aquasol , radioactivities of the samples were measured in a scintillation counter.

[2] = system: cholesterol synthesis in rat liver; assay: Ex-Vivo Fasted (cholesterol synthesis from [14C] sodium acetate in liver slices of orally dosed fasted rats); conditions: 1 mg/kg oral in 0.5% methocel, rats fasted 16 hours, livers removed after one hour
Procedure: The second method (designated Ex-Vivo Fasted) used was as follows. Rats of 170-210 g were maintained on a low cholesterol diet for one week prior to use. Drugs (identified in Table I) were given orally in 0.5% methocel to fasted (fasted for 16 hours) rats. After one hour the rats were decapitated and their livers removed and transferred to chilled oxygenated Kreb's-Ringer-bicarbonate buffer (pH 7.4). The livers were then chopped into 0.5 mm slices using a McIlwain tissue chopper, and were suspended in the same buffer. Aliquots of the suspension containing 100 mg tissue were pipetted to culture tubes which contained [^14 C] sodium acetate (2μ Ci, 1 mM). The tubes were gassed with 95% O2 /5 % CO2, capped and incubated at 37° C. in a shaking water bath at 150 oscillation/min. for two hours. The final assay volume was 1.0 ml. After incubation the reaction was stopped by the addition of 1.0 ml of 15% KOH in ethanol, and the internal standard ^3 H-cholesterol was added. The tubes were recapped and the samples were saponified at 75° C. for two hours with periodic mixing. Subsequently an aliquot was removed for protein analysis using Bio-Rad's standard kit, and the remainder of the saponified samples was extracted with 10 ml of petroleum ether for 30 minutes. […] After visualization with iodine the cholesterol spots were cut and counted with liquid scintillation fluid.

Row | SMILES | IC50 [1] [nM] | inhibition at 1 mg/kg [2] [%]
1 | O=C1C[C@@H](O)C[C@H](/C=C/C2=C(c3ccc(F)cc3)C=C(c3ccccc3)C23CCCC3)O1 (relative stereo) [Compound of Example I Step 9, Trans-(E)-6-[2-[2-(4-fluorophenyl)-4-phenyl-spiro[4,4]-nona-1,3-dien-1-yl]ethenyl]-3,4,5,6-tetrahydro-4-hydroxy-2H-pyran-2-one] | 0.9 | 
2 | O=C1C[C@@H](O)C[C@H](/C=C/C2=C(c3ccc(F)cc3)C=C(c3ccccc3)C23CCCC3)O1 (relative stereo) [Lactone Form of Compound of Example I Step 9] [Trans-(E)-6-[2-[2-(4-fluorophenyl)-4-phenyl-spiro[4,4]-nona-1,3-dien-1-yl]ethenyl]-3,4,5,6-tetrahydro-4-hydroxy-2H-pyran-2-one] | 70 | 
3 | O=C(O)C[C@H](O)C[C@H](O)/C=C/C1=C(c2ccc(F)cc2)C=C(c2ccccc2)C12CCCC2 (relative stereo) |  | 65 ± 4
